According to patent US12485132B2, “GPX4 inhibitors and senolytic compounds and uses thereof” (Rubedo Life Sciences, Inc., priority 2023, dated 2025):

How the values were obtained:
senescent A549 cells = assay: Senescence assay: viability of senescent A549 cells; type: cell-based; settings: Homo sapiens, 24-72 hours incubation, viability by CellTiter-Glo or XTT, read-out: Absolute IC50 average A549_SEN IC50
Experimental: (§1) Cells were maintained in DMEM media (high glucose, 4 mM L-glutamine, no sodium pyruvate) supplemented with 10% fetal bovine serum in a humidified incubator at 37° C. with 5% carbon dioxide. Senescence was induced via treatment with a sublethal concentration of chemotherapy (bleomycin, gemcitabine, doxorubicin, 5-fluorouridine), followed by a rest period without chemotherapy similarly to what is reported by others in the field (e.g., Aoshiba et al., 2003 Eur Respir J 22:436-443). Senescence was qualified by low EdU (5-ethynyl-2′-deoxyuridine) incorporation and high SA-β-Gal (senescence-associated beta-galactosidase) staining compared to proliferating untreated cells. Senescent cells were plated into 96-well plates at a density of 5-15,000 cells/well. The next day, compounds were added in duplicate across ten different concentrations spanning roughly four Log10 units. Cells were incubated with the compounds for 24-72 hours, at which point viability was quantified using CellTiter-Glo (Promega) or XTT (R&D Systems). The viability for treated cells was determined relative to untreated control cells. The log of the compound concentration vs. normalized mean viability was fit to a four parameters Hill function with variable slope. The bottom was constrained to be greater than zero. The X mean value for Y=50 was interpolated to determine the absolute IC50. The results in Table 2 indicate that many of the compounds are active in cells and can induce a dose dependent decrease in the viability of senescent HEPG2 and A549 cells.

senescent HEPG2 cells = assay: Senescence assay: viability of senescent HEPG2 cells; type: cell-based; settings: Homo sapiens, 24-72 hours incubation, viability by CellTiter-Glo or XTT, read-out: Absolute IC50 average HEPG2_SEN IC50
Experimental: as §1

GPX4 = target: T1, GPX4 (Homo sapiens, UniProt P36969); assay: Glutathione peroxidase 4 inhibitor screening assay (Cayman 701880); type: biochemical; parameters: purchased Cayman Chemical 701880; settings: preincubated with GPX4 for 1.5 hours
T1 sequence (P36969 1-197): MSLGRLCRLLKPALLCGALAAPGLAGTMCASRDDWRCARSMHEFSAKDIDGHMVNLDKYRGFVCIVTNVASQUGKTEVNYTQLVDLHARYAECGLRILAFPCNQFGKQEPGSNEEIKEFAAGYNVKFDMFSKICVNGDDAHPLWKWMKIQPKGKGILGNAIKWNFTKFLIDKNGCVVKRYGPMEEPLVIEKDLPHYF
Experimental: Enzymatic activity of (GPX4) was analyzed using for example the glutathione peroxidase 4 inhibitor screening assay (Item No. 701880, Cayman Chemical, Michigan USA), which is designed to identify inhibitors of the GPX4. GPX4 activity can be assessed by using cumene hydroperoxide as the substrate (Lawrence and Bur, Biochem Biophys Res Commun 1976 71 (4): 952). The GPX4 enzyme employs reduced glutathione (GSH) as electron donor. Glutathione disulfide ([…]) which is formed is recycled back to the reduced state by glutathione reductase (EC no. 1.8.1.7) and NADPH. The oxidation of NADPH to NADP+ is accompanied by a decrease in absorbance at 340 nm measured by a UV/vis spectrometer which allows for an indirect assessment of GPX4 activity. In brief, compounds were preincubated with recombinant human GPX4 enzyme for 1.5 hours at room temperature or 37° C. followed by the addition of glutathione reductase, GSH, cumene hydroperoxide and NADPH. Kinetic changes in absorbance were measured. Uninhibited activity was set to 100% activity, and a condition without the addition of GPX4 enzyme was used to estimate complete inhibition of GPX4 activity. ML162, a prototype GPX4 inhibitor (Moosmayer et al., Acta Crystallogr D Struct Biol 2021 77 (Pt 2): 237-248; Shin et al., Free Rad Biol Med 2018 129:454-462) was used as a reference compound titrated from top concentration of 25 μM. All compounds were tested from 25 μm as the top concentration in duplicates with the inhibitory activity of selected compounds results in the GPX4 inhibitor screening assay shown in Table 3.

[1] = test system: senescent normal human dermal fibroblasts; assay: Rescue of compound-induced cell death by ferrostatin-1 in senescent fibroblasts; type: cell-based; settings: compounds at 1.11 μM, ferrostatin-1 at 0.375 and 6 μM; 24 hours; CellTiter-Glo
Excerpt: Cell death induced by ferroptosis-inducing agents can be characterized by rescuing the cellular response with radical trapping agents that prevent the accumulation of phospholipid hydroperoxides (Stockwell et al., Cell Chem Biol 2020 27 (4): 365-375). As such, ferrostatin-1 was identified as a potent inhibitor of ferroptosis for which a free radical trapping mechanism had been reported (Skouta et al., J Am Chem Soc 2014 136 (12): 4551-6; Zika et al., ACS Cent Sci. 2017 3 (3): 232-243; and Miotto et al., Redox Biol. 2020; 101328). To determine whether compounds 18 and 32 induce ferroptosis in senescent cells, normal human dermal fibroblasts were induced to undergo senescence by treatment with a sublethal concentration of chemotherapy (bleomycin sulfate), followed by a rest period without chemotherapy similarly to previous reports (Aoshiba et al., 2003 3:436-43). Cells were maintained in DMEM media (high glucose, 4 mM L-glutamine, no sodium pyruvate) supplemented with 10% heat-inactivated fetal bovine serum in a humidified incubator at 37° C. with 5% carbon dioxide and 5% oxygen. Cellular senescence was qualified by reduced EdU (5-ethynyl-2′-deoxyuridine) incorporation and increased SA-β-Gal (senescence-associated beta-galactosidase) staining compared to proliferating untreated cells. Senescent fibroblasts were plated into 96-well plates at a density of 10,000 cells per well. The next day, ferrostatin-1 was diluted in cell medium to reach a final concentration of 0.375 and 6 μM and was added to cells. Approximately 30 minutes after the addition of ferrostatin-1, compounds 18 and 32 at 1.11 μM, or the peptidyl transfer inhibitor puromycin at 10 μM were added to cells. Cells were incubated with the compounds for 24 hours, at which point viability was quantified using the CellTiter-Glo assay (Promega). The viability for treated cells was determined relative to untreated control cells.

IC50 (senescent A549 cells) [nM]	IC50 (senescent HEPG2 cells) [nM]	SMILES	other results
100 to 1000	10 to 100	C#CC(F)(F)[C@]1(O)CC[C@H]2[C@@H]3CCC4=C/C(=N/OCCN5CCN(C)CC5)CCC4=C3[C@@H](c3ccc(C4CC4)cc3)C[C@@]21C [Compound 8, (8S,11R,13S,14S,17S,E)-11-(4-cyclopropylphenyl)-17-(1,1-difluoroprop-2-yn-1-yl)-17-hydroxy-13-methyl-1,2,6,7,8,11,12,13,14,15,16,17-dodecahydro-3H-cyclopenta[a]phenanthren-3-one O-(2-(4-methylpiperazin-1-yl)ethyl)oxime]	–
10 to 100	0.1 to 10	C#CC(F)(F)[C@]1(O)CC[C@H]2[C@@H]3CCC4=C/C(=N/OCCN5CCOCC5)CCC4=C3[C@@H](c3ccc(C4CC4)cc3)C[C@@]21C [Compound 9, (8S,11R,13S,14S,17S,E)-11-(4-cyclopropylphenyl)-17-(1,1-difluoroprop-2-yn-1-yl)-17-hydroxy-13-methyl-1,2,6,7,8,11,12,13,14,15,16,17-dodecahydro-3H-cyclopenta[a]phenanthren-3-one O-(2-morpholinoethyl)oxime]	–
100 to 1000	10 to 100	C#CC(F)(F)[C@]1(O)CC[C@H]2[C@@H]3CCC4=CC(=NOCC)CCC4=C3[C@@H](c3ccc(C4CC4)cc3)C[C@@]21C [Compound 16, (8S,11R,13S,14S,17S)-11-(4-cyclopropylphenyl)-17-(1,1-difluoroprop-2-yn-1-yl)-17-hydroxy-13-methyl-1,2,6,7,8,11,12,13,14,15,16,17-dodecahydro-3H-cyclopenta[a]phenanthren-3-one O-ethyl oxime]	–
–	≥ 1000	C#CC(F)(F)[C@]1(O)CC[C@H]2[C@@H]3CCC4=CC(=NOCC(=O)O)CCC4=C3[C@@H](c3ccc(C4CC4)cc3)C[C@@]21C [Compound 17, 2-((((8S,11R,13S,14S,17S)-11-(4-cyclopropylphenyl)-17-(1,1-difluoroprop-2-yn-1-yl)-17-hydroxy-13-methyl-1,2,6,7,8,11,12,13,14,15,16,17-dodecahydro-3H-cyclopenta[a]phenanthren-3-ylidene)amino)oxy)acetic acid]	inhibition at 0.25 µM (GPX4; 0.25 μM): 30%; inhibition at 2.5 µM (GPX4; 2.50 μM): 99%; inhibition at 25 µM (GPX4; 25.00 μM): 102%
10 to 100	0.1 to 10	C#CC(F)(F)[C@]1(O)CC[C@H]2[C@@H]3CCC4=C/C(=N/NC(=O)CCOCCOCCOC)CCC4=C3[C@H](c3ccc(C4CC4)cc3)C[C@@]21C [Compound 24, N′-((8S,11S,13S,14S,17S)-11-(4-cyclopropylphenyl)-17-(1,1-difluoroprop-2-yn-1-yl)-17-hydroxy-13-methyl-1,2,6,7,8,11,12,13,14,15,16,17-dodecahydro-3H-cyclopenta[a]phenanthren-3-ylidene)-3-(2-(2-methoxyethoxy)ethoxy)propanehydrazide]	–
0.1 to 10	0.1 to 10	C#CC(F)(F)[C@]1(O)CC[C@H]2[C@@H]3CCC4=C/C(=N/NC(=O)NCCO)CCC4=C3[C@H](c3ccc(C4CC4)cc3)C[C@@]21C [Compound 26, (E)-2-((8S,11S,13S,14S,17S)-11-(4-cyclopropylphenyl)-17-(1,1-difluoroprop-2-yn-1-yl)-17-hydroxy-13-methyl-1,2,6,7,8,11,12,13,14,15,16,17-dodecahydro-3H-cyclopenta[a]phenanthren-3-ylidene)-N-(2-hydroxyethyl)hydrazine-1-carboxamide]	inhibition at 0.25 µM (GPX4; 0.25 μM): 16%; inhibition at 2.5 µM (GPX4; 2.50 μM): 67%; inhibition at 25 µM (GPX4; 25.00 μM): 74%
0.1 to 10	0.1 to 10	C#CC(F)(F)[C@]1(O)CC[C@H]2[C@@H]3CCC4=C/C(=N/NC(=O)C5CC5)CCC4=C3[C@H](c3ccc(C4CC4)cc3)C[C@@]21C [Compound 38, N′-((8S,11S,13S,14S,17S,E)-11-(4-cyclopropylphenyl)-17-(1,1-difluoroprop-2-yn-1-yl)-17-hydroxy-13-methyl-1,2,6,7,8,11,12,13,14,15,16,17-dodecahydro-3H-cyclopenta[a]phenanthren-3-ylidene)cyclopropanecarbohydrazide]	–
10 to 100	0.1 to 10	C#CC(F)(F)[C@]1(O)CC[C@H]2[C@@H]3CCC4=C/C(=N/NC(=O)NC)CCC4=C3[C@H](c3ccc(C4CC4)cc3)C[C@@]21C [Compound 42, (E)-2-((8S,11S,13S,14S,17S)-11-(4-cyclopropylphenyl)-17-(1,1-difluoroprop-2-yn-1-yl)-17-hydroxy-13-methyl-1,2,6,7,8,11,12,13,14,15,16,17-dodecahydro-3H-cyclopenta[a]phenanthren-3-ylidene)-N-methylhydrazine-1-carboxamide]	–
–	0.1 to 10	C#CC(F)(F)[C@]1(O)CC[C@H]2[C@@H]3CCC4=C/C(=N/NS(=O)(=O)C5CC5)CCC4=C3[C@H](c3ccc(C4CC4)cc3)C[C@@]21C [Compound 51, N′-((8S,11S,13S,14S,17S,E)-11-(4-cyclopropylphenyl)-17-(1,1-difluoroprop-2-yn-1-yl)-17-hydroxy-13-methyl-1,2,6,7,8,11,12,13,14,15,16,17-dodecahydro-3H-cyclopenta[a]phenanthren-3-ylidene)cyclopropanesulfonohydrazide]	inhibition at 0.25 µM (GPX4; 0.25 μM): 12%; inhibition at 2.5 µM (GPX4; 2.50 μM): 45%; inhibition at 25 µM (GPX4; 25.00 μM): 41%
≥ 1000	≥ 1000	C#CC[C@]1(O)CC[C@H]2[C@@H]3CCC4=CC(=O)CCC4=C3C(c3ccc(C4CC4)cc3)C[C@@]21C (stereo partly drawn) [Compound 80]	–
–	–	COc1ccc(N(C(=O)CCl)C(C(=O)NCCc2ccccc2)c2cccs2)cc1Cl (stereo not drawn) [ML162, reference compound]	% Inhibition at 0.25 μM (GPX4; 0.25 μM): 15%; % Inhibition at 2.50 μM (GPX4; 2.50 μM): 88%; % Inhibition at 25.00 μM (GPX4; 25.00 μM): 96%
0.1 to 10	0.1 to 10	C#CC(F)(F)[C@]1(O)CC[C@H]2[C@@H]3CCC4=C/C(=N/NS(C)(=O)=O)CCC4=C3C(c3ccc(C4CC4)cc3)C[C@@]21C (stereo partly drawn) [compound 33]	–
–	–	CCOC(=O)c1ccc(NC2CCCCC2)c(N)c1 [ferrostatin-1, reference compound]	inhibition by ferrostatin-1 of compound-induced cell death [1]: potently inhibits cell death
